“Also recorded” adds a separate entry of the source.
Tests used:
logP values = format: physicochemical
SCC-25 cells = assay: MTT test (viability) on SCC-25 tumor cells; format: cell-based; settings: for inhibition at 100 µM / IC50 / cytotoxicity at 100 µM: Homo sapiens; for inhibition at 100 µM: read-out: max. inhibition; for IC50: read-out: −lg IC50 [M] ± SEM (converted); for cytotoxicity at 100 µM: read-out: Max. inhibition (%) (maximum decrease in viability)
[1] = MTT test (viability) on HaCaT keratinocyte cell line; format: cell-based; settings: human, 10^−4 M, read-out: Max. inhibition (%) (maximum decrease in viability)
primary keratinocytes = assay: MTT test (viability) on primary keratinocytes (NHK); format: cell-based; settings: for inhibition at 100 µM / IC50: Keratinocyte; for inhibition at 100 µM: read-out: max. inhibition; for IC50: 48 h stimulation, read-out: −lg IC50 [M] ± SEM (converted)
[2] = as above; format: cell-based; settings: human, primary keratinocytes (NHK); MTT test, NHK, 10^−4 M; read-out: Max. inhibition (%) (maximum decrease in viability)
[3] = MTT test (viability) on colon carcinoma line HT-29; format: cell-based; settings: Hat 29, 10^−4 M
[4] = MTT test (viability) on dermal fibroblasts; format: cell-based; settings: Fibrob., 10^−4 M, read-out: Max. inhibition (%) (maximum decrease in viability)
MCF-7 = assay: MTT test (viability) on breast cancer cell line MCF-7; format: cell-based; settings: Homo sapiens, MCF7, MCF-7, 10^−4 M, read-out: Max. inhibition (%) (maximum decrease in viability)
[5] = MTT test 48 h, SCC-25 cells, inhibitionmax = 100 − E, E = activity at 10^−4 M in %
[6] = MTT test, 48 h stimulation, SCC-25 cells
[7] = MTT test 48 h, primary keratinocytes, inhibitionmax = 100 − E, E = activity at 10^−4 M in %
[8] = MTT test, primary keratinocytes

`Cc1cn([C@H]2CC(=O)[C@@H](CO)O2)c(=O)[nH]c1=O` [HM-1, 3′-Deoxy-3′-oxothymidine] showed a logP (logP values) of -1.13, an inhibition at 100 µM (SCC-25 cells; [5]) of 47% and an IC50 (SCC-25 cells; [6]) of 4.47e-05 M. For the same compound, the cytotoxicity at 100 µM (SCC-25 cells; MTT test, SCC-25, 10^−4 M) was 47%, the “cytotoxic / antiproliferative effect on tumor cells (SCC-25), in words” value (SCC-25 cells; SCC-25 cells, FIG. 1, FIG. 2, Table 1) was “strong cytotoxic effect; also recorded: stronger than that of the two comparative substances 5-fluorouracil and aphidicolin” and the “selectivity: effect on SCC-25 tumor cells compared with keratinocytes, in words” value (SCC-25 cells; SCC-25 vs primary keratinocytes (and HaCaT)) was “stronger than that in primary keratinocytes”. The cytotoxicity [1] was 16%, the inhibition at 100 µM (primary keratinocytes; [7]) was 24% and the cytotoxicity [2] was 23%.

`C[C@]12C=CC(=O)C=C1CC[C@@H]1[C@@H]2[C@@H](O)C[C@@]2(C)[C@H]1CC[C@]2(O)C(=O)CO` [Prednisolone] gave a logP (logP values) of 1.69.

For `CCOC(=O)O[C@]1(C(=O)COC(=O)CC)CC[C@H]2[C@@H]3CCC4=CC(=O)C=C[C@]4(C)[C@H]3[C@@H](O)C[C@@]21C` [Prednicarbate], the logP (logP values) was 3.82.

With `O=c1[nH]cc(F)c(=O)[nH]1` [Substance 5-FU, 5-fluorouracil] the “Max. inhibition (%) (maximum decrease in viability)” value [3] was 66%, the cytotoxicity [4] was 88% and the inhibition at 100 µM (SCC-25 cells; [5]) was 42%. It also gave an IC50 (SCC-25 cells; [6]) of 1.05e-06 M, a cytotoxicity at 100 µM (SCC-25 cells; MTT test, SCC-25, 10^−4 M) of 42% and a cytotoxicity [1] of 80%. For the same compound, the inhibition at 100 µM (primary keratinocytes; [7]) was 44%, the IC50 (primary keratinocytes; [8]) was 1.05e-05 M and the cytotoxicity [2] was 41%. It also gave a cytotoxicity at 100 µM (MCF-7) of 71%.

For `O=C(O)P(=O)(O)O` [Foscamet], the max. inhibition (SCC-25 cells; [5]) was 9%, the pIC50 (SCC-25 cells; [6]) was 5.87 ± 0.24 and the “Max. inhibition (%) (maximum decrease in viability)” value (SCC-25 cells; MTT test, SCC-25, 10^−4 M) was 9%. For the same compound, the max. inhibition (primary keratinocytes; [7]) was “n.d. (−13%)” and the “Max. inhibition (%) (maximum decrease in viability)” value (primary keratinocytes; MTT test, NHK, 10^−4 M) was 0%.

In the case of `C[C@@]1(CO)[C@H](O)CC[C@@]2(C)[C@H]1CC[C@H]1C[C@@H]3C[C@@]12CC[C@]3(O)CO` [Aphidicolin], the “Max. inhibition (%) (maximum decrease in viability)” value [3] is reported as 70%, the cytotoxicity [4] is reported as 54% and the inhibition at 100 µM (SCC-25 cells; [5]) is reported as 66%. The IC50 (SCC-25 cells; [6]) was 5.13e-07 M, the cytotoxicity at 100 µM (SCC-25 cells; MTT test, SCC-25, 10^−4 M) was 62% and the cytotoxicity [1] was 86%. The inhibition at 100 µM (primary keratinocytes; [7]) was 46%, the IC50 (primary keratinocytes; [8]) was 5.62e-09 M and the cytotoxicity [2] was 44%. For the same compound, the cytotoxicity at 100 µM (MCF-7) was 61%.

For `Cc1cn([C@H]2CC(=NO)[C@@H](CO)O2)c(=O)[nH]c1=O` [HM-1 oxime, 3′-deoxy-3′-hydroxyliminothymidine], the inhibition at 100 µM (SCC-25 cells; [5]) was 36%, the IC50 (SCC-25 cells; [6]) was 3.72e-08 M and the cytotoxicity at 100 µM (SCC-25 cells; MTT test, SCC-25, 10^−4 M) was 30%. It also gave a cytotoxicity [1] of 20%, an inhibition at 100 µM (primary keratinocytes; [7]) of 7% and an IC50 (primary keratinocytes; [8]) of 3.09e-08 M. The cytotoxicity [2] was 3%.
